What was measured:
[1] = target: aldose reductase (Homo sapiens, UniProt P15121); conditions: literature report; cited from earlier work
[2] = target: aldose reductase (Bos taurus, UniProt P16116); test: % inhibition in vitro at 10^-7 M (aldose reductase inhibition); format: biochemical
[3] = system: dulcitol accumulation in the lens; test: % lowering dulcitol accumulation in vivo, lens (L), galactosemic rats; set-up: species or system rat (Sprague-Dawley); conditions: 4 days
Excerpt: (§1) Such experiments are exemplified hereinbelow after the listing of the following general comments pertaining to these experiments:
(§2) (a) Four or more groups of six male rates, 50-70 g, Sprague-Dawley strain, were used. The first group, the control group, was fed a mixture of laboratory chow (rodent laboratory chow, Purina) and glucose at 20% (w/w %) concentration. The untreated galactosemic group was fed a similar diet in which galactose is substituted for glucose. The third group was fed a diet prepared by mixing a given amount of the test compound with the galactose containing diet. The concentration of galactose in the diet of the treated groups was the same as that for the untreated galactosemic group.
(§3) (b) After four days, the animals were killed by decapitation. The eyeballs were removed and punctured with a razor blade; the freed lenses were rolled gently on filter paper and weighed. The sciatic nerves were dissected as completely as possible and weighed. Both tissues were frozen and can be kept up to two weeks before being analyzed for dulcitol.
(§4) Only two minor reagent changes were made: (a) The rinsing mixture was an aqueous 5% (w/v) trichloroacetic acid solution and (b) the stock solution was prepared by dissolving 25 mg of dulcitol in 100 ml of an aqueous trichloroacetic acid solution. [N.B.: For each experiment the average value found in the tissue from rats fed the glucose diet was subtracted from the individual values found in the corresponding rat tissue to obtain the amount of polyol accumulated.]
(§5) The figures under L, N and D represent the percentage decrease of dulcitol accumulation in the tissues of the lens, sciatic nerve and diaphragm, respectively, for treated rats as compares to untreated rats.

[4] = system: dulcitol accumulation in the diaphragm; test: % lowering dulcitol accumulation in vivo, diaphragm (D), galactosemic rats; set-up: species or system rat (Sprague-Dawley); conditions: 4 days
Excerpt: as §1, §2, §4, §5

[5] = system: dulcitol accumulation; test: galactosemic rats, dulcitol accumulation, overall comparison in words; format: in vivo, rat (Sprague-Dawley)
Excerpt: The aldose reductase inhibiting property of the compounds of this invention and the utilization of the compounds in preventing, diminishing and alleviating diabetic complications are demonstrable in experiments using galactosemic rats, see Dvornik et at., cited above. Such experiments are exemplified hereinbelow after the listing of the following general comments pertaining to these experiments:
as §2, §3
as §4, with “(c) The polyol determination was performed by a modification of the procedure of M. Kraml and L. Cosyns, Clin. Biochem., 2,373 (1969). Only” for “Only”
as §5

[6] = 24.5 mg/kg/day in galactose diet

**Q.** With `O=C1NC(=O)[C@@]2(CCOc3ccc(F)cc32)N1` [sorbinol, (S)-6-Fluoro-2,3-dihydrospiro(4H-1-benzopyran-4,4'-imidazolidine)-2',5'-dione] as the molecule, how does the “inhibition of aldose reductase” value [1] read?
**A.** The value was “aldose reductase inhibiting properties”.

**Q.** Which inhibition at 0.1 µM [2] does the source give for `COc1ccc2c(C(=O)N(C)CC(=O)O)cccc2c1C(F)(F)C(F)(F)C(F)(F)F` [Compound 4, N-[[5-(heptafluoropropyl)-6-methoxy-1-naphthalenyl]carbonyl]-N-methylglycine] here?
**A.** The inhibition at 0.1 µM was 63%.

**Q.** What about the “% lowering dulcitol accumulation in vivo, L” value ([3]; 10 mg/kg/day in galactose diet) of the same molecule?
**A.** The value was 19%.

**Q.** And the “% lowering dulcitol accumulation in vivo, D” value ([4]; 10 mg/kg/day in galactose diet)?
**A.** Its value is 38%.

**Q.** And the “activity compared with compound No. 7 (tolrestat) at 11 mg/kg/day” value ([5]; 10 mg/kg/day)?
**A.** Its value is “comparable results”.

**Q.** For `COc1ccc2c(C(=O)N(C)CC(=O)O)cccc2c1C(F)(F)C(F)(F)F` [Compound 2, N-[[6-Methoxy-5-(pentafluoroethyl)-1-naphthalenyl]carbonyl]-N-methylglycine], which inhibition at 0.1 µM [2] is on record?
**A.** Its inhibition at 0.1 µM is 56%.

**Q.** What about the “% lowering dulcitol accumulation in vivo, D” value ([4]; 29 mg/kg/day in galactose diet) of the same molecule?
**A.** The value was 68%.

**Q.** With `COc1ccc2c(C(=O)N(C)CC(=O)O)cccc2c1C(F)(F)C(F)(F)C(F)(F)C(F)(F)C(F)(F)C(F)(F)F` [Compound 6, N--[[5-(Tridecafluorohexyl)-6-methoxy-1-naphthalenyl]carbonyl]-N--methylglycine] as the molecule, how does the inhibition at 0.1 µM [2] read?
**A.** The inhibition at 0.1 µM was 47%.

**Q.** What about the “% lowering dulcitol accumulation in vivo, L” value ([3]; 25 mg/kg/day in galactose diet) of the same molecule?
**A.** Its value is 0%.

**Q.** And the “% lowering dulcitol accumulation in vivo, D” value ([4]; 25 mg/kg/day in galactose diet)?
**A.** The value was 0%.

**Q.** Which inhibition at 0.1 µM [2] does the source give for `COc1ccc2c(C(=S)N(C)CC(=O)O)cccc2c1C(F)(F)C(F)(F)C(F)(F)F` [Compound 3, N-[[5-(heptafluoropropyl)-6-methoxy-1-naphthalenyl]thioxomethyl]-N-methylglycine] here?
**A.** Its inhibition at 0.1 µM is 75%.

**Q.** And the “% lowering dulcitol accumulation in vivo, L” value ([3]; 5 mg/kg/day in galactose diet)?
**A.** The value was 20%.

**Q.** And the “% lowering dulcitol accumulation in vivo, D” value ([4]; 5 mg/kg/day in galactose diet)?
**A.** The value was 76%.

**Q.** And the “activity compared with tolrestat at 4 mg/kg/day” value ([5]; 5 mg/kg/day)?
**A.** Its value is “superior to tolrestat”.

**Q.** And the “activity compared with tolrestat at 11 mg/kg/day” value ([5]; 5 mg/kg/day)?
**A.** The value was “approaches the activity of tolrestat”.

**Q.** And the “activity relative to tolrestat” value ([5]; about twice as active as tolrestat)?
**A.** The value was “about twice”.

**Q.** What does the source list for `COc1ccc2c(C(=O)N(C)CC(=O)O)cccc2c1C(F)(F)F` [Compound 8, N--[ [5-(Trifluoromethyl)-6-methoxy-1-naphthalenyl]carbonyl]-N--methylglycine, reference compound]?
**A.** inhibition at 0.1 µM [2]: 57%; % lowering dulcitol accumulation in vivo, L ([3]; 10 mg/kg/day in galactose diet): 0%; % lowering dulcitol accumulation in vivo, D ([4]; 10 mg/kg/day in galactose diet): 20%

**Q.** For `COc1ccc2c(C(=S)N(C)CC(=O)O)cccc2c1C(F)(F)C(F)(F)F` [Compound 1, N-[[6-methoxy-5-(pentafluoroethyl)-1-naphthalenyl]thioxomethyl]-N-methylglycine], which inhibition at 0.1 µM [2] is on record?
**A.** The inhibition at 0.1 µM was 71%.

**Q.** What about the “% lowering dulcitol accumulation in vivo, L” value [3, 6] of the same molecule?
**A.** Its value is 29%.

**Q.** What about the “% lowering dulcitol accumulation in vivo, D” value [4, 6] of the same molecule?
**A.** The value was 93%.

**Q.** For `COc1ccc2c(C(=S)N(C)CC(=O)O)cccc2c1C(F)(F)C(F)(F)C(F)(F)C(F)(F)C(F)(F)C(F)(F)F` [Compound 5, N-[[6-Methoxy-5-(tridecafluorohexyl)-1-naphthalenyl]thioxomethyl]-N-methylglycine], which inhibition at 0.1 µM [2] is on record?
**A.** Its inhibition at 0.1 µM is 40%.

**Q.** And the “% lowering dulcitol accumulation in vivo, L” value ([3]; 26 mg/kg/day in galactose diet)?
**A.** The value was 0%.

**Q.** What about the “% lowering dulcitol accumulation in vivo, D” value ([4]; 26 mg/kg/day in galactose diet) of the same molecule?
**A.** The value was 51%.

**Q.** Which “% lowering dulcitol accumulation in vivo, D” value ([4]; 11 mg/kg/day in galactose diet) does the source give for `COc1ccc2c(C(=S)N(C)CC(=O)O)cccc2c1C(F)(F)F` [Compound 7, N--[[5-(Trifluoromethyl)-6-methoxy-1-naphthalenyl]thioxomethyl]-N--methylglycine, reference compound] here?
**A.** Its value is 89%.

**Q.** For `O=C(O)CN1C(=O)c2cccc3cccc(c23)C1=O` [1,3-Dioxo-1H-benz[de]isoquinoline-2(3H)-acetic acid], which “inhibition of aldose reductase” value [1] is on record?
**A.** Its value is “effective inhibitor of aldose reductase”.

— patent US4604406A, “N-[6-methoxy-5-(perfluoroalkyl)-1-naphtholyl]-N-methylglycines and their thionaphthoyl analogs” (Ayerst, McKenna & Harrison, Inc., priority 1984, dated 1986)
